Test results: patent US20260345527A1 (priority 2022, published 2026)
Where two headings read alike, the source gives them in different places.

Key:
ALS = details: approved ALS therapeutics, background; cited from earlier work
TDP-43 [1] = assay: TDP-43 aggregation (TDP-43 aggregation kit) in H2O2-treated SH-SY5Y cells
HSPB8 = assay: protein expression of chaperone HSPB8 in SH-SY5Y cells
[2] = system: HSPB8 (Heat Shock Protein Family B (Small) Member 8); details: sh-sy5y cells, 24 h
TDP-25 = assay: intracellular localization of TDP-25 in SH-SY5Y cells transfected with GFP-TDP-25 (fluorescence microscopy)
Text: (§1) In FIG. 4, blue fluorescence indicates the nucleus with DAPI, and green fluorescence indicates TDP-25 with GFP.
(§2) To construct an aggregation model of TDP-43 protein in the SH-SY5Y cells, which are human neuroblastoma cell lines, a GFP-TDP-25 plasmid was transfected into cells, and it may be confirmed that the transfected GFP-TPD-25 (GFP: green fluorescent protein) is present in the cytoplasm.

TDP-43 protein = assay: inhibition of TDP-43 protein aggregation in SH-SY5Y cells (summary statements)
TDP-43 [3] = assay: TDP-43 aggregation in cytoplasm by immunofluorescence staining and fluorescence microscopy in H2O2-treated SH-SY5Y cells
insoluble TDP-43 = assay: expression of insoluble TDP-43 in GFP-TDP-25 TDP-43 aggregation model of SH-SY5Y cells; details: GFP-TDP-25 transfected cells; metformin (5 mM), colchicine (1000 nM) alone or in combination; FIG. 4 B and C
Text: as §1, §2

Question: For `CC1=NN(c2ccccc2)C(=O)C1` [Edaravone], which “effect on life expectancy or disease progression in ALS patients” value (ALS) is on record?
Answer: help extend life expectancy in patients by several months or delay the progression of the disease at an early stage

Question: What about the “therapeutic effect in ALS” value (ALS) of the same molecule?
Answer: only a symptom-relieving effect

Question: With `Nc1nc2ccc(OC(F)(F)F)cc2s1` [Riluzole] as the molecule, how does the “effect on life expectancy or disease progression in ALS patients” value (ALS) read?
Answer: help extend life expectancy in patients by several months or delay the progression of the disease at an early stage

Question: What about the “therapeutic effect in ALS” value (ALS) of the same molecule?
Answer: only a symptom-relieving effect

Question: For `COc1cc2c(c(OC)c1OC)-c1ccc(OC)c(=O)cc1[C@@H](NC(C)=O)CC2` [colchicine], which “effect on hydrogen peroxide-induced TDP-43 aggregation” value (TDP-43 [1]) is on record?
Answer: slight effect

Question: And the “increase of SQSTM1/p62 mRNA expression” value (SQSTM1/p62; sh-sy5y cells, 24 h)?
Answer: 2-3 times

Question: And the “change in HSPB8 protein expression” value (HSPB8)?
Answer: inadequate change

Question: And the “increase in HSPB8 mRNA expression” value [2]?
Answer: approximately 2 fold

Question: And the “effect on TDP-25 accumulation in the cytoplasm” value (TDP-25)?
Answer: did not affect

Question: What about the “reduction/inhibition of TDP-43 aggregation (summary)” value (TDP-43 protein) of the same molecule?
Answer: hardly reduced

Question: What about the “effect on TDP-43 aggregation in the cytoplasm” value (TDP-43 [3]) of the same molecule?
Answer: did not inhibit

Question: What about the “increase of TFEB mRNA expression” value (TFEB; sh-sy5y cells, 24 h) of the same molecule?
Answer: 2-3 times

Question: What about the “increase of MAP1LC3A mRNA expression” value (MAP1LC3A; sh-sy5y cells, 24 h) of the same molecule?
Answer: 2-3 times

Question: Which “induction of abnormal aggregation of TDP-43” value (TDP-43 [1]; 1 mM hydrogen peroxide, 1 hour, FIG. 2) does the source give for `OO` [hydrogen peroxide (H2O2), hydrogen peroxide] here?
Answer: significantly induced abnormal aggregation of TDP-43

Question: And the “induction of TDP-43 aggregation in the cytoplasm” value (TDP-43 [3]; 1 mM hydrogen peroxide, 1 hour, FIG. 3 A and B)?
Answer: significantly induced TDP-43 aggregation in the cytoplasm

Question: Which results are given for `CN(C)C(=N)N=C(N)N` [metformin]?
Answer: effect on hydrogen peroxide-induced TDP-43 aggregation (TDP-43 [1]; 24 h drug, then 1 mM H2O2 for 1 hour, metformin 0.1-5 mM, colchicine 1-1000 nM, alone or in combination, FIG. 2): did not have a significant effect; SQSTM1/p62 mRNA expression (SQSTM1/p62; metformin alone, 0.1-5 mM, 24 hours, FIG. 6): no effect; change in HSPB8 protein expression (HSPB8; metformin (5 mM) alone or colchicine (1000 nM) alone, FIG. 1 D): inadequate change; effect on TDP-25 accumulation in the cytoplasm (TDP-25; GFP-TDP-25 transfected cells, drugs alone or in combination, FIG. 4 A): did not affect; effect on expression of insoluble TDP-43 (insoluble TDP-43): slightly reduced; reduction/inhibition of TDP-43 aggregation (summary) (TDP-43 protein; colchicine alone, metformin alone, or in combination): hardly reduced; effect on TDP-43 aggregation in the cytoplasm (TDP-43 [3]; hydrogen peroxide-treated cells, drugs alone or in combination, FIG. 3 A and B): did not inhibit; TFEB mRNA expression (TFEB; metformin alone, 0.1-5 mM, 24 hours, FIG. 5): no effect; MAP1LC3A mRNA expression (MAP1LC3A; metformin alone, 0.1-5 mM, 24 hours, FIG. 7): no effect
